Read-outs that look alike come from different tables or passages of the source.
Legend:
gastric acid secretion = assay: inhibition of gastric acid secretion in the pylorus ligated rat model; type: in vivo, Male Sprague-Dawley rats; settings: for inhibition in vivo at 10 µmol/kg / inhibition in vivo at 2 µmol/kg: Rattus norvegicus, read-out: Percent Inhibition; for ED50: Table VII, estimated from pylorus ligated rat data; for inhibition in vivo at 2 µmol/kg: 2.0 μmoles/kg; for Inhibition: Table VI
Description: The gastric acid inhibition activity of direct acting 5-HT1A agonists was established by evaluations using the pylorus ligated rat model. In the pylorus ligated rat model, changes in basal acid secretion may reflect a stimulatory or inhibitory action depending on treatment of compound type tested. The compounds tested were confirmed by various receptor binding tests to have an affinity for the 5-HT1A receptor prior to testing in the pylorus ligated rat model.
The pylorus ligated rat model used is a modification of the procedure developed by Shay (Shay, H., Komarov, A. A. and Greenstein, M.: "Effects of vagotomy in the rat." Arch. Surg. 49:210-226, 1949). Male Sprague-Dawley rats weighing approximately 200 g were starved 24 hours prior to using, with water allowed ad libitum. Under light ether anesthetic the pylorus is ligated, simultaneously the rat is dosed intraperitoneally (i.p.) or subcutaneously (s.c.) and allowed 2 hours for stomach acid accumulation. At the end of 2 hours the rats are sacrificed. Stomach content is measured and titrated to a pH end point of 7.0. Each experiment has its own control group for determining percent of acid change over the 2-hour time period.
Specific compounds within the scope of the above general classes of direct acting 5-HT1A agonists were tested. For evaluation purposes, the compound to be tested is dissolved in distilled water, or in 10% dimethyl sulfoxide, depending upon its solubility. The results of these evaluations are set forth below in Tables I through VI. All compounds were dosed intraperitoneally, unless otherwise indicated.
The ED50 values for certain specific compounds were estimated based on data from the pyrolus ligated rat model evaluations. […] Under "Dose", i.p. means intraperitoneally and s.c. means subcutaneously.

gastric secretion = settings: intravenous infusion in humans, cited from earlier work; for inhibition of gastric secretion (in words): spontaneous and histamine induced
[1] = ip, 2 h, Table I, 10 μmoles/kg, intraperitoneally, 2 hours
[2] = ip, 2 h, Table II, intraperitoneally, 2 hours
[3] = ip, 2 h, Table V, 10 μmoles/kg, intraperitoneally, 2 hours
[4] = Table I, 10 μmoles/kg, intraperitoneally, 2 hours
[5] = ip, 2 h, Table II, 10 μmoles/kg, intraperitoneally, 2 hours
[6] = ip, 2 h, Table IV, 10 μmoles/kg, intraperitoneally, 2 hours
[7] = 10 μmoles/kg, intraperitoneally, 2 hours

SMILES: CCCN(CCC)C1CCc2cccc(OC)c2C1 (racemic) [Evaluation Example 1, (±) 8-methoxy-2-(dipropylamino)-1,2,3,4-tetrahydronaphthalene]
- inhibition in vivo at 10 µmol/kg (gastric acid secretion; [1]): 96.4 ± 0.7%
- ED50 (gastric acid secretion; ip, 2 h, i.p., read-out: ED50): 1.54 µmol/kg

SMILES: CCCN(CCC)C1Cc2c[nH]c3ccc(C(=O)OC)c(c23)C1 (racemic) [Evaluation Example 13, (±)-4-(Di-n-propylamino)-1,3,4,5-tetrahydrobenz[c,d]indole-6-carboxylic acid, methyl ester]
- inhibition in vivo at 2 µmol/kg (gastric acid secretion; [2]): 86.4 ± 2.5%
- ED50 (gastric acid secretion; ip, 2 h, i.p., read-out: ED50): < 0.1 µmol/kg

SMILES: CN(C)C1Cc2c[nH]c3ccc(C=O)c(c23)C1 (racemic) [Evaluation Example 17, (±)-4-(Dimethylamino)-1,3,4,5-tetrahydrobenz[c,d]indole-6-carboxaldehyde]
- inhibition in vivo at 2 µmol/kg (gastric acid secretion; [2]): 79.2 ± 4.6%
- ED50 (gastric acid secretion; ip, 2 h, i.p., read-out: ED50): 1.26 µmol/kg

SMILES: O=C1NCN(c2ccccc2)C12CCN(CC1COc3ccccc3O1)CC2 (single isomer, unassigned) [Evaluation Example 28]
- inhibition in vivo at 10 µmol/kg (gastric acid secretion; [3]): 29.3 ± 10%

SMILES: O=C1NCN(c2ccccc2)C12CCN(CC1COc3ccccc3O1)CC2 (single isomer, unassigned) [Evaluation Example 29]
- Percent Inhibition (gastric acid secretion; Table V, 10 μmoles/kg, intraperitoneally, 2 hours): 24.6 ± 9.2%

SMILES: NCCc1c[nH]c2ccc(O)cc12 [5-HT, 5-hydroxytryptamine, reference compound]
- inhibition of gastric acid secretion (gastric acid secretion; 20 micromoles/kg, standard): 56.1%
- ED50 (gastric acid secretion; ip, 2 h, i.p., read-out: ED50): 11.5 µmol/kg
- production of mucus (in words) (gastric secretion): increasing the production of mucus
- inhibition of gastric secretion (in words) (gastric secretion): inhibits the volume and acidity of both spontaneous and histamine induced gastric secretion

SMILES: N[C@@H](Cc1c[nH]c2ccc(O)cc12)C(=O)O [5-HTP, 5-hydroxytryptophane]
- production of mucus (in words) (gastric secretion): increasing the production of mucus
- inhibition of gastric secretion (in words) (gastric secretion): inhibits the volume and acidity of both spontaneous and histamine induced gastric secretion

SMILES: CCCN(CCC)[C@@H]1CCc2cccc(SC)c2C1.Cl [Evaluation Example 2, (R)-8-Thiomethyl-N,N-dipropyl-2-aminotetralin hydrochloride]
- Percent Inhibition (gastric acid secretion; [4]): 94.9 ± 1.2%
- ED50 (gastric acid secretion; i.p., 120 min): 1.56 µmol/kg

SMILES: CCCN(CCC)[C@H]1CCc2cccc(SC)c2C1.Cl [Evaluation Example 3, (S)-8-Thiomethyl-N,N-dipropyl-2-aminotetralin hydrochloride]
- Percent Inhibition (gastric acid secretion; [4]): 89.8 ± 4.9%
- ED50 (gastric acid secretion; i.p., 120 min): 1.42 µmol/kg

SMILES: CCCN(CCC)C1CCc2cccc(C(N)=O)c2C1 (stereo not shown) [Evaluation Example 4]
- inhibition in vivo at 10 µmol/kg (gastric acid secretion; [1]): 82.5 ± 7.4%

SMILES: CSc1cccc2c1CC(N(C)C)CC2 (stereo not shown) [Evaluation Example 5, 2-Dimethylamino-8-thiomethyl-1,2,3,4-tetrahydronaphthalene]
- inhibition in vivo at 10 µmol/kg (gastric acid secretion; [1]): 80.7 ± 8.4%

SMILES: CCCN(CCC)C1CCc2cccc(Br)c2C1 (stereo not shown) [Evaluation Example 6, 2-Di-n-propylamino-8-bromo-1,2,3,4-tetrahydronaphthalene]
- inhibition in vivo at 10 µmol/kg (gastric acid secretion; [1]): 39.6 ± 10.9%

SMILES: CCCN(CCC)C1CCc2cccc(F)c2C1 (stereo not shown) [Evaluation Example 7]
- inhibition in vivo at 10 µmol/kg (gastric acid secretion; [1]): 24.6 ± 7.9%

SMILES: CCCN(CCC)C1CCc2cccc(O)c2C1 (stereo not shown) [Evaluation Example 8, 8-hydroxy-2-dipropylamino-1,2,3,4-tetrahydronaphthalene, reference compound]
- inhibition in vivo at 2 µmol/kg (gastric acid secretion; ip, 2 h, Table I, intraperitoneally, 2 hours): 80.1 ± 6.3%
- ED50 (gastric acid secretion; ip, 2 h, i.p., read-out: ED50): 1.56 µmol/kg
- ED50 (gastric acid secretion; sc, 2 h, s.c., read-out: ED50): 0.46 µmol/kg

SMILES: CCCN(CCC)C1Cc2c[nH]c3ccc(C#N)c(c23)C1 (stereo not shown) [Evaluation Example 9]
- inhibition in vivo at 10 µmol/kg (gastric acid secretion; [5]): 92.2 ± 3.2%

SMILES: CN(C)C1Cc2c[nH]c3ccc(C#N)c(c23)C1 (stereo not shown) [Evaluation Example 10]
- inhibition in vivo at 10 µmol/kg (gastric acid secretion; [5]): 91.6 ± 3.9%

SMILES: CCCN(CCC)C1Cc2c[nH]c3ccc([N+](=O)[O-])c(c23)C1 (stereo not shown) [Evaluation Example 11]
- inhibition in vivo at 10 µmol/kg (gastric acid secretion; [5]): 89.8 ± 1.4%

SMILES: CCCN(CCC)C1Cc2c[nH]c3ccc(Br)c(c23)C1 (stereo not shown) [Evaluation Example 12]
- inhibition in vivo at 10 µmol/kg (gastric acid secretion; [5]): 87 ± 1.8%

SMILES: CCCN(CCC)C1Cc2c[nH]c3ccc(OC)c(c23)C1 (stereo not shown) [Evaluation Example 14]
- inhibition in vivo at 10 µmol/kg (gastric acid secretion; [5]): 86.4 ± 4%
- ED50 (gastric acid secretion; ip, 2 h, i.p., read-out: ED50): < 0.1 µmol/kg

SMILES: CCCN(CCC)C1Cc2c[nH]c3ccc(C(=O)O)c(c23)C1 (stereo not shown) [Evaluation Example 15]
- inhibition in vivo at 10 µmol/kg (gastric acid secretion; [5]): 81.7 ± 5.8%
- ED50 (gastric acid secretion; ip, 2 h, i.p., read-out: ED50): 1 µmol/kg

SMILES: CCCN(CCC)C1Cc2cn(C(C)C)c3ccc(OC)c(c23)C1 (stereo not shown) [Evaluation Example 16]
- inhibition in vivo at 10 µmol/kg (gastric acid secretion; [5]): 80.9 ± 5.5%

SMILES: CCCN(CCC)C1Cc2c[nH]c3ccc(C(N)=O)c(c23)C1 (stereo not shown) [Evaluation Example 18]
- inhibition in vivo at 10 µmol/kg (gastric acid secretion; ip, 2 h): 65.5 ± 7.1%

SMILES: CCCN(CCC)CCc1c[nH]c2ccc(C(N)=O)cc12 [Evaluation Example 19, N,N-dipropyl-5-carboxamidotryptamine]
- inhibition in vivo at 10 µmol/kg (gastric acid secretion; ip, 2 h): 92.7 ± 3.3%

SMILES: OC(CNC1CC2CCC1C2)COc1ccccc1C1CCCC1 (stereo not shown) [Evaluation Example 20]
- inhibition in vivo at 10 µmol/kg (gastric acid secretion; [6]): 72.4 ± 7.5%

SMILES: OC(CNC1CCCCCCC1)COc1ccccc1C1CCCC1 (stereo not shown) [Evaluation Example 21, 1-(2-Cyclopentylphenoxy)-3-(cyclooctylamino)-2-propanol ethanedioate]
- inhibition in vivo at 10 µmol/kg (gastric acid secretion; [6]): 65.1 ± 5.7%

SMILES: OC(CNC1CCCC1)COc1ccccc1C1CCCC1 (stereo not shown) [Evaluation Example 24, 1-(2-Cyclopentylphenoxy)-3-(Cyclopentylamino)-2-propanol ethanedioate]
- inhibition in vivo at 10 µmol/kg (gastric acid secretion; [6]): 19.7 ± 14.8%

SMILES: Oc1cccc2c1OC(CNCCCC1CCCCC1)CO2 (stereo not shown) [Evaluation Example 25, 2-[(3-Cyclohexylpropyl)aminomethyl]-8-hydroxy-1,4-benzodioxane]
- inhibition in vivo at 10 µmol/kg (gastric acid secretion; [3]): 70.4 ± 8.4%

SMILES: COc1ccc(CCNCC2COc3ccccc3O2)cc1OC (stereo not shown) [Evaluation Example 26]
- inhibition in vivo at 10 µmol/kg (gastric acid secretion; [3]): 58.9 ± 6.6%

SMILES: CCOc1cccc2c1OC(CNCCc1ccccc1)CO2 (stereo not shown) [Evaluation Example 27, 2-[(2-phenylethyl)aminomethyl]-8-ethoxy-1,4-benzodioxane]
- inhibition in vivo at 10 µmol/kg (gastric acid secretion; [3]): 38.3 ± 15.9%

SMILES: c1ccc(CCNCC2COc3ccccc3O2)cc1 (stereo not shown) [Evaluation Example 30, 2-[(2-phenylethyl)aminomethyl]-1,4-benzodioxane]
- inhibition in vivo at 10 µmol/kg (gastric acid secretion; [3]): 0.3 ± 14.1%

SMILES: CCCN(CCC)C1CC1c1cccc(O)c1 (stereo not shown) [Evaluation Example 31]
- Inhibition (gastric acid secretion; [7]): 48.2 ± 17.5

SMILES: CCCN(CCC)C1CC1c1ccccc1O (stereo not shown) [Evaluation Example 32]
- Inhibition (gastric acid secretion; [7]): 22.6 ± 11.8

SMILES: O=C1CC2(CCCC2)CC(=O)N1CCCCN1CCN(c2ncccn2)CC1 [Evaluation Example 33, 8-[4-[4-(2-pyrimidinyl)-1-piperazinyl]butyl]8-azaspiro[4.5]decane-7,9-dione, reference compound]
- ED50 (gastric acid secretion; sc, 2 h, s.c., read-out: ED50): 4.19 µmol/kg

Source: patent publication US5258379A, “Method of inhibiting gastric acid secretion with n-arylpiperazines” (Eli Lilly and Company, priority 1992, dated 1993)
